The values that follow are results of earlier work, collected in paper PMC6276840, “Challenges and Opportunities of Nanotechnology as Delivery Platform for Tocotrienols in Cancer Therapy” (Frontiers in Pharmacology, 2018).

Details of data set [1]: method as in Lorusso et al., 2007; Rafiyath et al., 2012; Rom et al., 2014. As to conditions: when delivered in liposomes; ref Lorusso et al., 2007; Rafiyath et al., 2012; Rom et al., 2014.
The test system of the next data set is MDA-MB-231. As to conditions: MDA-MB-231 cells; ref Alayoubi et al., 2013.
The subject of a further data set is MCF-7. As to conditions: MCF-7 cells; ref Alayoubi et al., 2013.
Details of data set [2]: method as in Yap et al., 2003. The note with it: rats; ref Yap et al., 2003.

On to `COc1cccc2c1C(=O)c1c(O)c3c(c(O)c1C2=O)C[C@@](O)(C(=O)CO)C[C@@H]3O[C@H]1C[C@H](N)[C@H](O)[C@H](C)O1` [doxorubicin], for which, in data set [1], the cardiotoxicity entry is on record as “markedly reduced”; the “hematological toxicity and palmar–plantar erythrodysesthesia” value is reported as “increased incidence”.

In general, IC50 refers to the concentration needed to halve the response being measured. Regarding `CCC(C)(C)C(=O)O[C@H]1C[C@@H](C)C=C2C=C[C@H](C)[C@H](CC[C@@H]3C[C@@H](O)CC(=O)O3)[C@H]21` [simvastatin], the IC50 in the data set with MDA-MB-231 is 8 µM; with MCF-7 it was 19 µM.

In the case of `CC(C)=CCC/C(C)=C/CC/C(C)=C/CC[C@]1(C)CCc2cc(O)c(C)c(C)c2O1` [γ-tocotrienol], in data set [2], the absolute oral bioavailability entry is recorded as “less than 10%”.

In the case of `CC(C)=CCC/C(C)=C/CC/C(C)=C/CC[C@]1(C)CCc2c(C)c(O)c(C)c(C)c2O1` [α-tocotrienol], in data set [2], the absolute oral bioavailability result is “less than 30%”.

On to `CC(C)=CCC/C(C)=C/CC/C(C)=C/CC[C@]1(C)CCc2cc(O)cc(C)c2O1` [δ-tocotrienol], for which, in data set [2], the absolute oral bioavailability entry is given as “less than 10%”.
